Results reported in paper PMC6748986, “Potent modulation of the CepR quorum sensing receptor and virulence in a Burkholderia cepacia complex member using non-native lactone ligands” (Scientific Reports, 2019).
Where a chain is given by its changes, count along the chain named. Several values for one entry are separate records, joined by “and”; a condition that tells them apart may be missing. Identical values can stand only once. Like-named read-outs stand apart in the source and are kept apart here.

Legend:
[1] = target: T1, CepR (Burkholderia multivorans, UniProt Q93PF7); test: CepR antagonism in B. multivorans cepI::lacZ reporter (Bm-reporter), competition against C8-AHL; format: cell-based; conditions: for Maximal Inhibition (%) / IC50: against 5 nM C8-AHL; for IC50: read-out: IC50
T1 sequence (Q93PF7 1-239): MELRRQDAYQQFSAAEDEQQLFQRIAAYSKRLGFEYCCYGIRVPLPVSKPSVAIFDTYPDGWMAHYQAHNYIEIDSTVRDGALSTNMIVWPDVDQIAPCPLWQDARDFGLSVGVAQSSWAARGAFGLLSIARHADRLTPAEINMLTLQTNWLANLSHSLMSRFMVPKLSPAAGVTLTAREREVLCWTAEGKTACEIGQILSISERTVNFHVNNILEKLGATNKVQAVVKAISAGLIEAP
Excerpt: (§1) We next sought to assess if the CepR modulators identified in the Ec-reporter maintained their activities in a member of the Bcc. For these studies, we generated a B. multivorans cepI::lacZ reporter organism (Bm-reporter) using standard allelic exchange methods (see Methods). Along with B. cenocepacia, B. multivorans is one of the most commonly isolated Bcc members[6],[44]. We note that small molecules must contend with a different cellular environment in the native organism relative to E. coli[48]; however, as both CepR and the cepI promoter are highly conserved among Bcc species (Fig. S3), we reasoned that the majority of compounds identified in the Ec-reporter (containing B. cenocepacia versions of the cepI promoter and the cepR gene) would maintain their relative activity profiles in CepR in B. multivorans. […] Similar to the Ec-reporter, CepR binding to the cepI promoter then induces β-galactosidase production, allowing for the quantitation of CepR activity. Using the Bm-reporter organism, we observed robust activity for CepR in response to C8-AHL (EC50 = 0.7 nM, Table 3).
(§2) The B. multivorans cepI::lacZ strain was used to obtain dose-response data for CepR in response to synthetic AHLs. Overnight cultures of B. multivorans cepI::lacZ were grown in LB medium at 37 °C with shaking (225 rpm). Aliquots (200 μL) of a 1:10 dilution of this overnight culture were plated into 96-well plates containing varying concentrations of compound, and then grown for 4 h at 37 °C with shaking (225 rpm). β-galactosidase production was measured as described above for E. coli, with the following changes: permeabilized cells were incubated at 25 °C with substrate CPRG for ~10 min until positive control wells developed a deep red color. For agonism assays, synthetic compound was screened alongside and compared to the native ligand, C8-AHL (100 μM). For antagonism assays, the concentration of native ligand utilized was 5 nM (approximately equal to twice its EC50 value).

[2] = target: T2, CepR (Burkholderia cenocepacia, UniProt B4EMD0); test: CepR antagonism in E. coli β-galactosidase reporter (Ec-reporter), competition against C8-AHL; format: cell-based, B. cenocepacia
T2 sequence (B4EMD0 1-239): T1 sequence (Q93PF7 1-239) with R5W, S51A, H69Q, S84N, Q95R, A97D
How it was run: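 CepR antagonism was measured in E. coli JLD271 (∆sdiA) carrying pJN105-cepR, which expresses B. cenocepacia CepR from an arabinose-inducible pBAD promoter, and pSC11-cepI, which fuses lacZ to the cepI promoter. Induced cells were grown 4 h with compound and 10 nM C8-AHL. β-Galactosidase activity was then read by CPRG cleavage at 37 °C after Z Buffer permeabilization.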

[3] = target: T2, CepR; test: CepR agonism in E. coli β-galactosidase reporter (Ec-reporter) JLD271 [pJN105-cepR + pSC11-cepI]; format: cell-based, B. cenocepacia; conditions: for Maximal Activation (%): activity for 100 μM C8-AHL set to 100%, error ±10%
How it was run: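 E. coli JLD271 (ΔsdiA) carrying arabinose-inducible CepR (27 mM L-arabinose) and cepI-lacZ fusion, grown 4 h with compound; β-galactosidase measured by CPRG cleavage at 37 °C (~30 min), normalized to OD600. Agonism compared with C8-AHL at 100 μM; screen at 100 μM or solubility limit, then dose-response; ≥3 trials.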

[4] = target: T1, CepR; test: CepR agonism in B. multivorans cepI::lacZ reporter (Bm-reporter); format: cell-based; conditions: for EC50: read-out: EC50; for Maximal Activation (%): activity for 100 μM C8-AHL set to 100%, error ±10%
Excerpt: as §1, §2

[5] = Table S3, Ec-reporter, screening conc. 100 μM, against 10 nM C8-AHL
[6] = Table S2, Ec-reporter, screening conc. 100 μM
[7] = Ec-reporter, agonism dose-response
[8] = Bm-reporter, agonism dose-response
[9] = Table S4, Bm-reporter, screening conc. 100 μM
[10] = Ec-reporter, against 10 nM C8-AHL

Compound | Inh% (100-Act%) [2, 5] [%] | Act% [3, 6] [%] | EC50 [3, 7] | Maximal Activation (%) ([3]; Ec-reporter) | Act% [4, 9] [%] | other results
O=C(Cc1ccc([N+](=O)[O-])cc1)N[C@H]1CCOC1=O [Compound C13] | 79 | 1.1 |  |  |  | CepR antagonism in words ([1]; Bm-reporter): bring reporter activity down to nearly zero; Maximal Inhibition (%) ([1]; Bm-reporter): 96%; IC50 ([1]; Bm-reporter): 3600 nM; IC50 ([2]; Table S3, Ec-reporter): 6.7 µM
O=C(CCc1ccc(Cl)cc1)N[C@H]1CCOC1=O [Compound E30] | -10 | 85 | 4.4 nM | 85% | 84 | EC50 [4, 8]: 0.75 nM; Maximal Activation (%) ([4]; Bm-reporter): 84%
CCCCCC(=O)CC(=O)N[C@H]1CCOC1=O [3’O-C8-AHL, reference compound] | 3.0 | 86 | 1200 nM | 86% | 72 | IC50 [2, 10]: 16 µM; Maximal Inhibition (%) [2, 10]: 71%; EC50 [4, 8]: ≥ 3500 nM; Maximal Activation (%) ([4]; Bm-reporter): 72%
O=C(CCc1cccc(I)c1)N[C@H]1CCOC1=O [Compound E33] | -20 | 92 | 0.95 nM | 92% | 94 | EC50 (nM) [3, 7]: sub-nanomolar; EC50 [4, 8]: 0.15 nM; Maximal Activation (%) ([4]; Bm-reporter): 94%
Cc1ccc(CCC(=O)N[C@H]2CCOC2=O)cc1 [Compound E26] | -10 | 96 | 5.9 nM | 96% | 96 | Maximal Activation (%) ([4]; Bm-reporter): 96%; EC50 ([4]; Table S4, Bm-reporter): 0.77 nM
CCCCCCCCCC(=O)CC(=O)N[C@H]1CCOC1=O [3’O-C12-AHL, reference compound] | -40 | 98 |  |  | 80 | 
O=C(Cc1ccccc1[N+](=O)[O-])N[C@H]1CCOC1=O [Compound C15] | 79 | 1.4 |  |  |  | Inh% (100-Act%) ([1]; Table S5, Bm-reporter, screening conc. 100 μM): 95%
CCCOc1ccc(C(=O)N[C@H]2CCOC2=O)cc1 [Compound R2] | -10 | 98 |  |  | 92 | EC50 ([3]; Table S2, Ec-reporter): 38 nM
O=C(CCC1CCCCC1)N[C@H]1CCOC1=O [Compound B11] | -20 | 87 | 130 nM | 87% | 51 | 
O=C(CCc1cccc(C(F)(F)F)c1)N[C@H]1CCOC1=O [Compound E36] | -10 | 92 | 26 nM | 92% | 103 | EC50 [4, 8]: ≥ 3900 nM; Maximal Activation (%) ([4]; Bm-reporter): 100%
CSc1ccc(CCC(=O)N[C@H]2CCOC2=O)cc1 [Compound E34] | -20 | 104 | 0.07 nM and 0.071 nM | 104% and 100% | 110 | Fold more potent than C8-AHL ([3]; Ec-reporter, EC50 comparison): ~100 fold; EC50 [4, 8]: 0.94 nM; Maximal Activation (%) ([4]; Bm-reporter): 110%
O=C(CCCOc1ccc(Cl)cc1)NC1CCOC1=O (centres unmarked) [CL, reference compound] | -20 | 110 |  |  | 80 | EC50 ([3]; Table S2, Ec-reporter): 12 nM; EC50 [4, 8]: 940 nM; Maximal Activation (%) ([4]; Bm-reporter): 80%
O=C(CCc1ccc(F)cc1)N[C@H]1CCOC1=O [Compound E29] | -10 | 92 | 2.3 nM | 92% | 94 | 
O=C(CCc1ccc(Br)cc1)N[C@H]1CCOC1=O [Compound B7] | -50 | 97 | 0.29 nM | 97% | 82 | EC50 (nM) [3, 7]: sub-nanomolar; EC50 [4, 8]: 0.24 nM; Maximal Activation (%) ([4]; Bm-reporter): 82%
CCCC(=O)CC(=O)N[C@H]1CCOC1=O [3’O-C6-AHL, reference compound] |  |  |  |  |  | Maximal Inhibition (%) ([1]; Bm-reporter): 85%; IC50 ([1]; Bm-reporter): 800 nM
O=C(CCc1cccc(Br)c1)N[C@H]1CCOC1=O [Compound E31] | -20 | 89 | 4.4 nM | 89% | 78 | EC50 [4, 8]: ≥ 3400 nM; Maximal Activation (%) ([4]; Bm-reporter): 78%
CC(C)Oc1ccc(C(=O)N[C@H]2CCOC2=O)cc1 [Compound R3] | -10 | 92 |  |  | 40 | EC50 ([3]; Table S2, Ec-reporter): 94 nM

Compound | Inh% (100-Act%) [2, 5] [%] | Act% [3, 6] [%] | EC50 [3, 7] | Maximal Activation (%) ([3]; Ec-reporter) | Act% [4, 9] [%] | other results
O=C(CCc1ccc2c(c1)OCO2)N[C@H]1CCOC1=O [Compound E39] | -40 | 103 | 1.4 nM | 100% | 84 | EC50 ([4]; Table S4, Bm-reporter): 9.1 nM
CCCCOc1ccc(C(=O)N[C@H]2CCOC2=O)cc1 [Compound R4] |  |  |  |  |  | Inh% (100-Act%) ([2]; Table S3, Ec-reporter, screening conc. 25 μM): -30%; EC50 ([3]; Table S2, Ec-reporter): 86 nM; Act% ([3]; Table S2, Ec-reporter, screening conc. 25 μM): 84%; Act% ([4]; Table S4, Bm-reporter, screening conc. 25 μM): 58%
COc1ccc(CCC(=O)N[C@H]2CCOC2=O)cc1 [Compound E28] | -30 | 92 | 3.8 nM | 92% | 90 | EC50 ([4]; Table S4, Bm-reporter): 52 nM
O=C(N[C@H]1CCOC1=O)c1ccc(I)cc1 [Compound Q5] | 0.0 | 78 |  |  |  | 
Cc1ccc(OCC(=O)N[C@H]2CCOC2=O)cc1 [Compound E15] | -30 | 65 |  |  |  | 
CCCC(=O)CC(=O)NC1CCSC1=O (centres unmarked) [3’O-C6-TL] | 4.0 | 1.6 |  |  |  | 
O=C(COc1ccc(Br)cc1)N[C@H]1CCOC1=O [Compound E21] | -10 | 89 |  |  |  | 
O=C(N[C@H]1CCOC1=O)c1ccc2c(c1)OCO2 [Compound Q11] | 5.0 | 6.9 |  |  |  | 
O=C(N[C@H]1CCOC1=O)c1ccccc1Br [Compound Q1] | -30 | 5.8 |  |  |  | 
O=C(CC(O)Cc1cccc(I)c1)N[C@H]1CCOC1=O (some centres unmarked) [Compound H15] | 18 | 2.6 |  |  |  | 
Cc1nc(-c2ccccc2)oc1CC(=O)N[C@H]1CCOC1=O [Compound D4] | 22 | 40 |  |  |  | 
O=C(Cc1c[nH]c2ccccc12)N[C@H]1CCOC1=O [Compound B13] | 22 | -1.1 |  |  |  | 
O=C(Cc1ccc(I)cc1)N[C@H]1CCOC1=O [Compound C10] | -10 | 29 |  |  |  | 
O=C(CCCc1ccccc1)N[C@@H]1CCOC1=O [Compound B3] | -30 | -0.4 |  |  |  | 
CCCCCCCCCC(=O)CC(=O)NCc1ccccc1F [Compound F26] | 20 | -1.2 |  |  |  | 
O=C(N[C@H]1CCOC1=O)C1CCC(c2ccc(Cl)cc2)CC1 (some centres unmarked) [Compound D14] |  |  |  |  |  | Inh% (100-Act%) ([2]; Table S3, Ec-reporter, screening conc. 40 μM): -20%; Act% ([3]; Table S2, Ec-reporter, screening conc. 40 μM): 54%
Cc1ccc(CC(=O)N[C@H]2CCOC2=O)cc1 [Compound C19] | -20 | -1.6 |  |  |  | 
